Tests used:
[1] = test system: interweave tumors, resistant to prospidine, rubomicine and sarcolyzine; experiment: efficiency on drug-resistant interweave tumors; format: in vivo
[2] = test system: mamma adenocarcinoma Ca-755; experiment: antitumor activity on experimental tumor strains; format: in vivo; conditions: intraperitoneal and intratumoral introduction, MTD
[3] = test system: lymphocytic leukemia P-388; experiment: antitumor activity on experimental tumor strains; format: in vivo; conditions: intraperitoneal and intratumoral introduction, MTD
[4] = test system: RAS-genes; experiment: expression of RAS-genes; format: cell-based
[5] = target: (Homo sapiens, UniProt P49354+P49356); experiment: inhibition of RAS-oncoprotein farnesylation; format: biochemical
Sequence of (Homo sapiens, UniProt P49354+P49356) (P49356 whole entry, one chain of several): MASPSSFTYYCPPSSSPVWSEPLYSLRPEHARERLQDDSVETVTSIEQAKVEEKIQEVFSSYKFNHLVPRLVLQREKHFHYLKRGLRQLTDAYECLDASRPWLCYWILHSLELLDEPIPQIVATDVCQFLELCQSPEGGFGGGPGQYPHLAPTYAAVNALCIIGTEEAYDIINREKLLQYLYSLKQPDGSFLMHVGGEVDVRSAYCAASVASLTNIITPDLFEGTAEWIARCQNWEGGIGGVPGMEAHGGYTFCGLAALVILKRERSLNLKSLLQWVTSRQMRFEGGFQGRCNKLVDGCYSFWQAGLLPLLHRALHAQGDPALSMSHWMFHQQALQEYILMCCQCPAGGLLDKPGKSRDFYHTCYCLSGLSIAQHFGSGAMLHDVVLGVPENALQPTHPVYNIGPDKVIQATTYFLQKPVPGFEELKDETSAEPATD

[6] = test system: lymphoid leukemia L-1210; experiment: antitumor activity on experimental tumor strains; format: in vivo; conditions: intraperitoneal and intratumoral introduction, MTD
[7] = test system: connective tissue; experiment: oxidation-reduction processes and metabolism in connective tissue
[8] = test system: Walker carcinosarcoma; experiment: antitumor activity on experimental tumor strains; format: in vivo; conditions: intraperitoneal and intratumoral introduction, MTD
[9] = test system: sarcoma 37; experiment: antitumor activity on experimental tumor strains; format: in vivo; conditions: intraperitoneal and intratumoral introduction, MTD
[10] = test system: T-cellular part of immunity; experiment: immunomodulating activity
[11] = test system: sarcoma M-I; experiment: antitumor activity on experimental tumor strains; format: in vivo; conditions: intraperitoneal and intratumoral introduction, MTD
[12] = test system: tumor cells; experiment: ATP content and apoptosis of tumor cells; format: cell-based
[13] = test system: alveolar mucous cancer of liver PC-1; experiment: antitumor activity on experimental tumor strains; format: in vivo; conditions: alveolar mucous cancer of liver PC-1 of rats; intraperitoneal and intratumoral introduction, MTD
[14] = test system: lung carcinoma; experiment: antitumor activity on experimental tumor strains; format: in vivo; conditions: intraperitoneal and intratumoral introduction, MTD
[15] = test system: Ehrlich's solid tumor; experiment: antitumor activity on experimental tumor strains; format: in vivo; conditions: intraperitoneal and intratumoral introduction, MTD

1(10)β-epoxy-13-dimethylamino-5,7α,6,11β(H)-guaia-3(4)-en-6,12-olide hydrochloride [Arglabin]
efficiency in relation to resistant interweave tumors [1]: shows efficiency
sensitivity of tumor strain [2]: sensitive
sensitivity of tumor strain [3]: sensitive
expression of RAS-genes [4]: reduces
inhibition of RAS-oncoproteins pharnesilis [5]: competitive inhibitor
sensitivity of tumor strain [6]: sensitive
oxidation-reduction processes and metabolism in a connective tissue [7]: has ability to optimize oxidation-reduction processes and a metabolism in a connective tissue
sensitivity of tumor strain [8]: sensitive
sensitivity of tumor strain [9]: sensitive
correction of immunodepressive effect of cytostatic [10]: has a property to correct immunodepressive effect of cytostatic cells
immunomodulating activity ([10]; depends on dose): shows primary influence on the T-cellular part of immunity
sensitivity of tumor strain [11]: sensitive
ATP content [12]: reduces
tumor cells apoptosis [12]: invokes tumor cells apoptosis
sensitivity of tumor strain [13]: sensitive
sensitivity of tumor strain [14]: sensitive
sensitivity of tumor strain [15]: sensitive

Source: patent US20090171105A1 (priority 2006, published 2009)
